Eleven molecules from ChEMBL document CHEMBL3046548, “Genetic and biochemical analysis of a laboratory-selected spirodiclofen-resistant strain of Tetranychus urticae Koch (Acari: Tetranychidae)” (2009) can be followed below.

SMILES strings stand for the structures. Values after ≈ are worked out from the molar mass of the structure shown. Where a name gives a salt, the structure may show the parent alone.

For test [1], the system named is Tetranychus urticae. Briefly: Resistance ratio of LC50 for Tetranychus urticae SR-VP (two-spotted spider mite) larvae reared under continuous pressure of 5000 mg/L spirodiclofen for 5 months in presence of 10 mg/L esterase inhibitor, DEF to LC50 for Tetranychus urticae LS-VL (two-spotted spider mite) larvae in presence of 10 mg/L esterase inhibitor, DEF. The test is classed as functional.

The subject of test [2] is Tetranychus urticae. Briefly: Insecticidal activity against Tetranychus urticae LS-VL (two-spotted spider mite) larvae […] assessed as mortality treated 3-4 hr after 10 mg/L esterase inhibitor, DEF application measured after 1 day. The test is classed as functional.
The test system of test [3] is Tetranychus urticae. Briefly: Synergism factor, ratio of LC50 for Tetranychus urticae LS-VL (two-spotted spider mite) larvae to LC50 for Tetranychus urticae LS-VL larva in presence of 10 mg/L esterase inhibitor, DEF. Type of test: functional.
Test [4] has as its system Tetranychus urticae. Briefly: Synergism factor, ratio of LC50 for Tetranychus urticae SR-VP (two-spotted spider mite) larvae to LC50 for Tetranychus urticae SR-VP larva in presence of 10 mg/L esterase inhibitor, DEF. The test is classed as functional.
Test [5] relates to Tetranychus urticae. Briefly: Insecticidal activity against Tetranychus urticae SR-VP (two-spotted spider mite) larvae reared under continuous pressure of 5000 mg/L spirodiclofen for 5 months assessed as mortality treated 3-4 hr after 10 mg/L esterase inhibitor, DEF application measured after 1 day. The test is classed as functional.
For test [6], the system named is Tetranychus urticae. The experiment in a line: Synergism factor, ratio of LC50 for Tetranychus urticae LS-VL (two-spotted spider mite) larvae to LC50 for Tetranychus urticae LS-VL larvae in presence of 200 mg/L GSH depleter, DEM. Type of test: functional.
Test [7] concerns Tetranychus urticae. The experiment in a line: Insecticidal activity against Tetranychus urticae SR-VP (two-spotted spider mite) larvae reared under continuous pressure of 5000 mg/L spirodiclofen for 5 months assessed as mortality treated 3-4 hr after 200 mg/L GSH depleter, DEM application measured after 1 day. Type of test: functional.
For test [8], the system named is Tetranychus urticae. Briefly: Insecticidal activity against Tetranychus urticae LS-VL (two-spotted spider mite) larvae […] assessed as mortality treated 3-4 hr after 200 mg/L GSH depleter, DEM application measured after 1 day. The test is classed as functional.
Test [9] has as its system Tetranychus urticae. Briefly: Synergism factor, ratio of LC50 for Tetranychus urticae SR-VP (two-spotted spider mite) larvae to LC50 for Tetranychus urticae SR-VP larvae in presence of 200 mg/L GSH depleter, DEM. Type of test: functional.
In test [10] the test system is Tetranychus urticae. The experiment in a line: Resistance ratio of LC50 for Tetranychus urticae SR-VP (two-spotted spider mite) larvae reared under continuous pressure of 5000 mg/L spirodiclofen for 5 months in presence of 200 mg/L GSH depleter, DEM to LC50 for Tetranychus urticae LS-VL (two-spotted spider mite) larvae in presence of 200 mg/L GSH depleter, DEM. The test is classed as functional.

Test [11] concerns Tetranychus urticae. The experiment in a line: Insecticidal activity against spirodiclofen-susceptible Tetranychus urticae LS-VL (two-spotted spider mite) adults in kidney bean leaf disks assessed as mortality after 2 day. Type of test: functional. Conditions: foliar, 48 h.
The test system of test [12] is Tetranychus urticae. The experiment in a line: Resistance ratio of LC50 for spirodiclofen-resistant Tetranychus urticae SR-VP (two-spotted spider mite) adults to LC50 for spirodiclofen-susceptible Tetranychus urticae LS-VL (two-spotted spider mite) adults. Type of test: functional.
The test system of test [13] is Tetranychus urticae. Briefly: Insecticidal activity against spirodiclofen-resistant Tetranychus urticae SR-VP (two-spotted spider mite) adults in kidney bean leaf disks assessed as mortality measured after 2 days. Type of test: functional. The conditions noted are these: foliar, 48 h.
The test system of test [14] is Tetranychus urticae. Briefly: Insecticidal activity against spirodiclofen-resistant Tetranychus urticae SR-VP (two-spotted spider mite) larvae in kidney bean leaf disks assessed as mortality measured after 1 day. Type of test: functional. Conditions: foliar, 24 h.
Test [15] deals with Tetranychus urticae. The experiment in a line: Insecticidal activity against spirodiclofen-susceptible Tetranychus urticae LS-VL (two-spotted spider mite) larvae in kidney bean leaf disks assessed as mortality after 1 day. Conditions: foliar, 24 h. The test is classed as functional.
The test system of test [16] is Tetranychus urticae. Briefly: Resistance ratio of LC50 for spirodiclofen-resistant Tetranychus urticae SR-VP (two-spotted spider mite) larvae to LC50 for spirodiclofen-susceptible Tetranychus urticae LS-VL (two-spotted spider mite) larvae. Type of test: functional.
The subject of test [17] is Tetranychus urticae. The experiment in a line: Insecticidal activity against Tetranychus urticae SR-VP (two-spotted spider mite) larvae reared under continuous pressure of 5000 mg/L spirodiclofen for 5 months assessed as mortality treated 3-4 hr after 200 mg/L cytochrome P450 monooxygenase inhibitor, PBO application measured after 1 day.
Test [18] has as its system Tetranychus urticae. The experiment in a line: Insecticidal activity against Tetranychus urticae LS-VL (two-spotted spider mite) larvae reared under continuous pressure of 5000 mg/L spirodiclofen for 5 months assessed as mortality treated 3-4 hr after 200 mg/L cytochrome P450 monooxygenase inhibitor, PBO application measured after 1 day.
Test [19] deals with Tetranychus urticae. Briefly: Insecticidal activity against spirodiclofen-resistant Tetranychus urticae SR-VP (two-spotted spider mite) eggs in kidney bean leaf disks assessed as mortality measured after 1 day. The test is classed as functional.
Test [20] has as its system Tetranychus urticae. Briefly: Insecticidal activity against spirodiclofen-resistant Tetranychus urticae SR-VP (two-spotted spider mite) larvae maintained on bean plants sprayed with 5000 mg/L spirodiclofen assessed as mortality. The test is classed as functional.
The subject of test [21] is Tetranychus urticae. The experiment in a line: Insecticidal activity against spirodiclofen-resistant Tetranychus urticae SR-VP (two-spotted spider mite) larvae maintained on bean plants sprayed with 5000 mg/L spirodiclofen assessed as mortality measured at 6 months after mite transfer onto unsprayed bean plants. The test is classed as functional.
Test [22] concerns Tetranychus urticae. The experiment in a line: Resistance ratio of LC50 for spirodiclofen-resistant Tetranychus urticae SR-VP (two-spotted spider mite) eggs to LC50 for spirodiclofen-susceptible Tetranychus urticae LS-VL (two-spotted spider mite) eggs. Type of test: functional.
Test [23] relates to Tetranychus urticae. The experiment in a line: Insecticidal activity against diploid F1 progeny generated from reciprocal cross between female Tetranychus urticae LS-VL (two-spotted spider mite) with male Tetranychus urticae SR-VP in kidney bean leaf disk assessed as mortality. The test is classed as functional.
For test [24], the system named is Tetranychus urticae. Briefly: Insecticidal activity against spirodiclofen-susceptible Tetranychus urticae LS-VL (two-spotted spider mite) eggs in kidney bean leaf disks assessed as mortality after 1 day. The test is classed as functional. The conditions noted are these: foliar, 24 h.
For test [25], the system named is Tetranychus urticae. The experiment in a line: Insecticidal activity against haploid F2 progeny generated from reciprocal cross between female Tetranychus urticae LS-VL (two-spotted spider mite) with male Tetranychus urticae SR-VP in kidney bean leaf disk assessed as mortality. The test is classed as functional. Conditions: foliar.
Test [26] has as its system Tetranychus urticae. The experiment in a line: Insecticidal activity against haploid F2 progeny generated from reciprocal cross between male Tetranychus urticae LS-VL (two-spotted spider mite) with female Tetranychus urticae SR-VP in kidney bean leaf disk assessed as mortality. The test is classed as functional. The conditions noted are these: foliar.
The test system of test [27] is Tetranychus urticae. The experiment in a line: Insecticidal activity against spirodiclofen-resistant Tetranychus urticae SR-VP (two-spotted spider mite) larvae reared under continuous pressure of 5000 mg/L spirodiclofen for 5 months in kidney bean leaf disks assessed as mortality measured after 1 day. Type of test: functional. Conditions: foliar, 24 h.
The test system of test [28] is Tetranychus urticae. Briefly: Insecticidal activity against diploid F1 progeny generated from reciprocal cross between male Tetranychus urticae LS-VL (two-spotted spider mite) with female Tetranychus urticae SR-VP in kidney bean leaf disk assessed as mortality. The test is classed as functional.
The subject of test [29] is Tetranychus urticae. Briefly: Resistance ratio of LC50 for spirodiclofen-resistant Tetranychus urticae SR-VP (two-spotted spider mite) larvae reared under continuous pressure of 5000 mg/L spirodiclofen for 5 months to LC50 for spirodiclofen-susceptible Tetranychus urticae LS-VL (two-spotted spider mite) larvae. Type of test: functional.

As for `CCCCSP(=O)(SCCCC)SCCCC` [S,S,S,-TRIBUTYLPHOSPHOROTRITHIOATE], the results for the RatioLC50 in test [1], in test [3] and in [4] were 64, 0.8 and 3.3, respectively. In addition, the LC50 in test [2] is 6.3 µg/mL (≈ 20 µM); in [5] it was 402 µg/mL (≈ 1280 µM).
On to `CCOC(=O)/C=C\C(=O)OCC` [DIETHYL MALEATE], for which the values for the RatioLC50 in test [6], in test [9] and in test [10] were 0.7, 1 and 189, respectively. The LC50 in test [7] was found to be 1310 µg/mL; in [8], 6.9 µg/mL.
In the case of `COc1ccc(-c2ccccc2)cc1NNC(=O)OC(C)C` [BIFENAZATE], the LC50 turned out to be 1.2 µg/mL (≈ 4 µM) in test [11] and 2.4 µg/mL (≈ 7.99 µM) in test [13]. In test [12], the RatioLC50 amounted to 2.
The like results for `CC[C@H](C)[C@H]1O[C@]2(C=C[C@@H]1C)C[C@@H]1C[C@@H](C/C=C(\C)[C@@H](O[C@H]3C[C@H](OC)[C@@H](O[C@H]4C[C@H](OC)[C@@H](O)[C@H](C)O4)[C@H](C)O3)[C@@H](C)/C=C/C=C3\CO[C@@H]4[C@H](O)C(C)=C[C@@H](C(=O)O1)[C@]34O)O2.CO[C@H]1C[C@H](O[C@H]2[C@H](C)O[C@@H](O[C@@H]3/C(C)=C/C[C@@H]4C[C@@H](C[C@]5(C=C[C@H](C)[C@@H](C(C)C)O5)O4)OC(=O)[C@@H]4C=C(C)[C@@H](O)[C@H]5OC/C(=C\C=C\[C@@H]3C)[C@]54O)C[C@@H]2OC)O[C@@H](C)[C@@H]1O` [ABAMECTIN] were, in that order, 0.4 µg/mL, 0.52 µg/mL and 1.3.
`CCOc1cc(C(C)(C)C)ccc1C1COC(c2c(F)cccc2F)=N1` (stereo not drawn) [ETOXAZOLE]: the median lethal concentration (LC50) in [14] worked out at 0.61 µg/mL (≈ 1.7 µM); in test [15], 0.76 µg/mL (≈ 2.11 µM). Also, the RatioLC50 in [16] turned out to be 0.8.
`Cc1cc(C)c(C2=C(OC(=O)CC(C)(C)C)C3(CCCC3)OC2=O)c(C)c1` [SPIROMESIFEN]: the LC50 came out at 14.5 µg/mL (≈ 39.1 µM) in test [14] and 0.79 µg/mL (≈ 2.13 µM) in [15]. Also, the RatioLC50 in [16] came out at 18.
Regarding `CCc1nn(C)c(C(=O)NCc2ccc(C(C)(C)C)cc2)c1Cl` [TEBUFENPYRAD], the LC50 in test [11] came to 63.5 µg/mL (≈ 190 µM); in test [13], 138 µg/mL (≈ 412 µM). Besides, the RatioLC50 in test [12] worked out at 2.2.
In the same order, the values of `CC(C)(C)c1ccc(CSc2cnn(C(C)(C)C)c(=O)c2Cl)cc1` [PYRIDABEN] are 156 µg/mL (≈ 427 µM), 135 µg/mL (≈ 370 µM) and 0.9.
Turning to `CCCCOCCOCCOCc1cc2c(cc1CCC)OCO2` [PIPERONYL BUTOXIDE], the 50% lethal concentration (LC50) in test [17] came to 380 µg/mL (≈ 1120 µM); in [18], 3.9 µg/mL (≈ 11.5 µM).
For `CCCCCCCCCCCCC1=C(OC(C)=O)C(=O)c2ccccc2C1=O` [ACEQUINOCYL], the LC50 in test [11] was 7.7 µg/mL (≈ 20 µM); in [13] it was 29.6 µg/mL (≈ 77 µM). Also, in test [12], the RatioLC50 turned out to be 3.8. The LC90 in [19] was determined as 60 mg/L (≈ 156 µM).
Regarding `CCC(C)(C)C(=O)OC1=C(c2ccc(Cl)cc2Cl)C(=O)OC12CCCCC2` [SPIRODICLOFEN], the LC50 in test [15] came to 4.9 µg/mL (≈ 11.9 µM); in test [20] it was 10000 µg/mL (≈ 24300 µM); in test [21] it was 5930 µg/mL (≈ 14400 µM); in test [23] (Tetranychus urticae, foliar) it was 68 µg/mL (≈ 165 µM); in test [24], 8.7 µg/mL (≈ 21.2 µM); in test [25], 56 µg/mL (≈ 136 µM). The LC50 is 44 µg/mL (≈ 107 µM) in [26]; 1340 µg/mL (≈ 3270 µM) in test [27]; 85 µg/mL (≈ 207 µM) in test [28] (Tetranychus urticae, foliar); 17.9 µg/mL (≈ 43.5 µM) in [19] (Tetranychus urticae, SR-VP, foliar, 24 h). The RatioLC50 worked out at 2 in [22] and 277 in test [29]. The LC90 in [23] stood at 150 mg/L (≈ 365 µM); in test [28], 236 mg/L (≈ 574 µM).
